According to publication PMC11764660, “Self-Assembled Peptide Hydrogels PPI45 and PPI47: Novel Drug Candidates for Staphylococcus aureus Infection Treatment” (Gels, 2025):

Experiments:
Type in all cases: cell-based, Staphylococcus aureus
S. aureus ATCC 43300 [1] = assay: Time-dependent bactericidal kinetic curve (time-kill); conditions: 2× MIC, S. aureus ATCC 43300, start 1×10^5 CFU/mL, 37 °C, 250 rpm
Method: The mixture was subsequently incubated in a shaker at 37 °C and 250 rpm. At predetermined intervals (0, 0.5, 1, 2, 4, 6, 10, 22, and 24 h), 100 μL aliquots were withdrawn and subjected to serial 10-fold dilutions before being plated for colony counting.

S. aureus ATCC 43300 [2] = assay: PAE assay; conditions: 2×MIC, 2 h exposure of 10^8 CFU/mL at 37 °C, 1000-fold dilution; time for tenfold increase of the colony count
Method: The mixture was subsequently incubated for 2 h at 37 °C and 250 rpm. Upon completion of the incubation period, 50 µL of the solution was withdrawn and diluted 1000-fold by adding […] of pre-warmed MHB, which was designated as the 0 h time point. Subsequently, samples were collected at 0, 0.5, 1, 2, 4, 6, 8, 10, 12, and 24 h. Each sample was subjected to 10-fold serial dilutions before being plated, and colony counts were performed. PBS served as the negative control. The time required for the colony count in each treatment group to increase tenfold relative to the post-reconstruction baseline was determined as PAE.

S. aureus ATCC43300 [3] = assay: SEM observation of bacterial morphology; conditions: 2×MIC, 2 h, 37 °C, 10^8 CFU/mL
Method: This mixture was incubated at 37 °C for 2 h. The 0.01 M PBS (pH 7.4) served as the blank control. After being centrifugated at 4000 rpm for 5 min, the samples were carefully washed three times with 0.01 M PBS. Next, 1 mL of 2.5% glutaraldehyde was added to each sample and stored at 4 °C overnight. The samples were washed twice with distilled water and subsequently dehydrated through a series of ethanol solutions (50%, 70%, 85%, 95%, and 100%). Each sample received three treatments with 100% ethanol, followed by drying at the CO2 critical point, gold sputtering, and observation under a scanning electron microscope.

S. aureus ATCC43300 [4] = assay: Cell membrane integrity analysis (PI, flow cytometry); conditions: 2×MIC, 37 °C, 10^8 CFU/mL
Method: The solution was incubated at 37 °C for 0.5, 1, 1.5, and 2 h, respectively, and 0.01 M PBS (pH 7.4) was used as a blank control. After the incubation periods, each sample was centrifugated at 4000 rpm for 5 min. Subsequently, 400 µL of the supernatant was removed, and 400 µL of sterile PBS was added. The samples were washed twice and then resuspended with PBS to a final volume of 450 µL. A 50 µL volume of PI staining solution (500 µg/mL) was added, and the samples were incubated for 15 min in the dark. Finally, the cells fixed with PI were analyzed using flow cytometry.

S. aureus ATCC 43300 [5] = assay: Membrane potential (DiSC3(5)); conditions: DiSC3(5) fluorescence, 1×, 2×, 4× MIC, 30 min, 37 °C, three replicates
Method: The fluorescent probe DiSC3(5) (0.5 mM) was co-incubated with PBS (10^8 CFU/mL) of S. aureus for 30 min at 37 °C. A total of 180 µL of bacteria carrying fluorescent probes and 20 µL of peptide solution at varying concentrations were added to 96-well plates and incubated for 30 min at 37 °C. The sample treated with PBS served as the negative control, and each concentration was set as three replicates. The alterations in fluorescence (excitation wavelength: 620 nm, emission wavelength: 670 nm) were monitored in real time over a period of 30 min using a multifunctional enzyme-labeling instrument.

| Molecule | bacterial count at 6 h (S. aureus ATCC 43300 [1]) [log10 CFU/mL] | bacterial count at 24 h (S. aureus ATCC 43300 [1]) [log10 CFU/mL] | post-antibiotic effect (PAE) (S. aureus ATCC 43300 [2]) [h] | morphological changes of the bacteria by SEM (S. aureus ATCC43300 [3]) | membrane penetration rate (PI-positive bacteria) (S. aureus ATCC43300 [4]; 1 h) [%] | membrane penetration rate (PI-positive bacteria) (S. aureus ATCC43300 [4]; 1.5 h) [%] | membrane penetration rate (PI-positive bacteria) (S. aureus ATCC43300 [4]; 2 h) [%] | effect on membrane potential (S. aureus ATCC 43300 [5]) |
| --- | --- | --- | --- | --- | --- | --- | --- | --- |
| CC1COc2c(N3CCN(C)CC3)c(F)cc3c(=O)c(C(=O)O)cn1c23 (centres unmarked) [ofloxacin, Ofloxacin] | 2 | 4.15 | 0.77 | crumpled appearance with leakage of intracellular contents | 0.26 | 0.7 | 1.13 | – |
| nisin | – | – | – | – | – | – | – | depolarization |
